The text below walks through data of ChEMBL document CHEMBL4765337, “Optical control of muscular nicotinic channels with azocuroniums, photoswitchable azobenzenes bearing two N-methyl-N-carbocyclic quaternary ammonium groups” (Eur J Med Chem, 2020).

Active and inactive are the calls of the source. The rule behind the calls is not given here.

Data set [1] in a line: Antagonist activity at rat alpha1beta1gamma1delta1 nAChR expressed in Xenopus laevis oocytes assessed as inhibition of ACh puff-induced maximum channel current amplitude using UV LED light irradiated compound measured at holding potential of -60 mV by two-electrode voltage clamp technique. Type of data set: cell-based. The settings on record: oocyte. A general note: In two-electrode clamp one electrode senses voltage and the other passes current.

A short description of data set [2]: Displacement of [125I] alpha bungarotoxin from human muscle type nAChR expressed in human TE-671 cell membrane measured after 120 mins by Topcount scintillation counting method. Type of data set: cell membranes. (Loss of bound radioactivity is the signal in a displacement assay; it reports binding, not function.)
Data set [3] is described as follows: Thermodynamic solubility of the compound in aqueous phosphate buffer at pH 7.4 measured after 24 hrs by UV-spectra reader analysis. Type of data set: physicochemical. The settings on record: read-out: Therm_solubility.
The subject of a further data set is RAW264.7. Briefly: Cytotoxicity against mouse RAW264.7 cells assessed as cell viability at 10 uM measured after 24 hrs by MTT assay. Type of data set: cell-based. Conditions: raw264.7, 24 h. For orientation: Tetrazolium assays rely on reduction of a dye to a coloured formazan, in cell work by metabolically active cells.
Data set [4] is described as follows: Effective permeability of compound measured after 240 mins by PAMPA-BBB assay based UV/Vis spectrophotometer analysis. The settings on record: read-out: Peff. In kind it is ADME.
Data set [5] has as its target T1, Neuronal acetylcholine receptor; alpha4/beta2 (Homo sapiens, UniProt P17787+P43681). Briefly: Displacement of [125I] alpha bungarotoxin from human neuronal alpha4beta2 nAChR expressed in human SH-SY5Y cell membrane at 10 uM measured after 120 mins by Topcount scintillation counting method. Type of data set: cell membranes.
Data set [6] concerns the target T1, Neuronal acetylcholine receptor; alpha4/beta2. Briefly: Displacement of [125I] alpha bungarotoxin from human neuronal alpha4beta2 nAChR expressed in human SH-SY5Y cell membrane measured after 120 mins by Topcount scintillation counting method. Type of data set: cell membranes.
The target of data set [7] is T2, Neuronal acetylcholine receptor subunit alpha-7 (Homo sapiens, UniProt P36544). Briefly: Displacement of [125I] alpha bungarotoxin from human neuronal alpha7 nAChR expressed in human SH-SY5Y cell membrane measured after 120 mins by Topcount scintillation counting method. Type of data set: cell membranes.
T2 sequence (P36544 whole entry): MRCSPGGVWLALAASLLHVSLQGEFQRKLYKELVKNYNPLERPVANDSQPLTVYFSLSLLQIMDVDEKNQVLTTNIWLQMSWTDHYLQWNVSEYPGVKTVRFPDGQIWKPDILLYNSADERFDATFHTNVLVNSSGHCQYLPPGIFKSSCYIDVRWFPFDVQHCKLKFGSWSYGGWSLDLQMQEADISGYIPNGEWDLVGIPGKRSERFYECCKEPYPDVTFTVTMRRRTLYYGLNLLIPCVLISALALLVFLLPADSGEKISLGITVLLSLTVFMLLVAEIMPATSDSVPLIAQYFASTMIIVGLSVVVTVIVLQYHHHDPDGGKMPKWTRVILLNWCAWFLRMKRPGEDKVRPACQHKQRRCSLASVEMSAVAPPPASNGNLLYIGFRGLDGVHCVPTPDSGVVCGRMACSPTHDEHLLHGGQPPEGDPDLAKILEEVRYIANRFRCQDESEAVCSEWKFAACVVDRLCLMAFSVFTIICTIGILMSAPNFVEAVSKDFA
In data set [8] the target is T2, Neuronal acetylcholine receptor subunit alpha-7. Briefly: Displacement of [125I] alpha bungarotoxin from human neuronal alpha7 nAChR expressed in human SH-SY5Y cell membrane at 10 uM measured after 120 mins by Topcount scintillation counting method. Type of data set: cell membranes.
The next data set concerns TE-671. Briefly: Displacement of [125I] alpha bungarotoxin from human muscle type nAChR expressed in human TE-671 cell membrane at 10 uM measured after 120 mins by Topcount scintillation counting method. In kind it is cell membranes. The settings on record: filed as antagonist.
Data set [9] can be described thus: Antagonist activity at rat alpha1beta1gamma1delta1 nAChR expressed in Xenopus laevis oocytes assessed as inhibition of ACh puff-induced maximum channel current amplitude measured at holding potential of -60 mV by two-electrode voltage clamp technique. In kind it is cell-based. Conditions: oocyte.
The test system of data set [10] is Oocyte. Briefly: Antagonist activity at rat alpha1beta1gamma1delta1 nAChR expressed in Xenopus laevis oocytes assessed as inhibition of ACh puff-induced maximum channel current amplitude at 0.1 to 5 uM measured following irradiation with UV LED light irradiation at holding potential of -60 mV by two-electrode voltage clamp technique. Conditions: dose 0.1-5 µM. Type of data set: cell-based.

The subject of data set [11] is Oocyte. Briefly: Antagonist activity at rat alpha1beta1gamma1delta1 nAChR expressed in Xenopus laevis oocytes assessed as inhibition of ACh puff-induced maximum channel current amplitude at 0.1 to 5 uM measured at holding potential of -60 mV by two-electrode voltage clamp technique. The settings on record: filed as antagonist, dose 0.1-5 µM. In kind it is cell-based.

The test system of data set [12] is Oocyte. Briefly: Antagonist activity at rat alpha1beta1gamma1delta1 nAChR expressed in Xenopus laevis oocytes assessed as inhibition of constant UV LED light irradiation-induced channel activation by measuring faster decay of Ach-induced channel current amplitude at 0.5 uM using blue LED light irradiated compound measured at holding potential of -60 mV by two-electrode voltage clamp technique. In kind it is cell-based. Conditions: filed as antagonist.

The species named for data set [13] is Homo sapiens. Briefly: Selectivity index, ratio of Ki for human neuronal alpha7 nAChR expressed in human SH-SY5Y cell membrane to Ki for human muscle type nAChR expressed in human TE-671 cell membrane. Type of data set: cell-based.
For data set [14], the system named is Oocyte. Briefly: Antagonist activity at rat alpha1beta1gamma1delta1 nAChR expressed in Xenopus laevis oocytes assessed as inhibition of ACh puff-induced maximum channel current amplitude at 5 uM measured at holding potential of -60 mV by two-electrode voltage clamp technique. Type of data set: cell-based. Conditions: filed as antagonist.
The subject of data set [15] is Oocyte. Briefly: Antagonist activity at rat alpha1beta1gamma1delta1 nAChR expressed in Xenopus laevis oocytes assessed as inhibition of ACh puff-induced maximum channel current amplitude at 5 uM measured following irradiation with UV LED light irradiation at holding potential of -60 mV by two-electrode voltage clamp technique. In kind it is cell-based.
For data set [16], the species on record is Homo sapiens. Briefly: Selectivity index, ratio of Ki for human neuronal alpha4beta2 nAChR expressed in human SH-SY5Y cell membrane to Ki for human muscle type nAChR expressed in human TE-671 cell membrane. Type of data set: cell-based.
Data set [17] has as its system Oocyte. Briefly: Antagonist activity at rat alpha1beta1gamma1delta1 nAChR expressed in Xenopus laevis oocytes assessed as inhibition of ACh puff-induced maximum channel current amplitude by measuring current fraction ratio measured at holding potential of -60 mV by two-electrode voltage clamp technique. Type of data set: cell-based.
For data set [18], the system named is Oocyte. Briefly: Antagonist activity at rat alpha1beta1gamma1delta1 nAChR expressed in Xenopus laevis oocytes assessed as inhibition of ACh puff-induced maximum channel current amplitude by measuring current fraction ratio using UV LED light irradiated compound measured at holding potential of -60 mV by two-electrode voltage clamp technique. Type of data set: cell-based.

T1 sequence (P17787 whole entry): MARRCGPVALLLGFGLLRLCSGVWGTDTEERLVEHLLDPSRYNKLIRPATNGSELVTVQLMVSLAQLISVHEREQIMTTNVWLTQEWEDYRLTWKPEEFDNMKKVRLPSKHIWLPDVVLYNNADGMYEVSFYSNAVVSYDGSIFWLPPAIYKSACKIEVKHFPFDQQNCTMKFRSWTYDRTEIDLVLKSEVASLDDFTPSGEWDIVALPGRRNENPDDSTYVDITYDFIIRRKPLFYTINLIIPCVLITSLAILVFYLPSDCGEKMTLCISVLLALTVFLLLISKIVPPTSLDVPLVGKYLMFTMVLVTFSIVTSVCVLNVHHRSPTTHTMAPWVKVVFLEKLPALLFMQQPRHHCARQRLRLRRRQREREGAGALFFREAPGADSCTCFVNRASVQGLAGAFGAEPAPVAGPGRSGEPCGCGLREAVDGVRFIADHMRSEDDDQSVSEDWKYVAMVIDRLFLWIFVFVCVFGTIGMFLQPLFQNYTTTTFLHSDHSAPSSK
T1 sequence (P43681 whole entry): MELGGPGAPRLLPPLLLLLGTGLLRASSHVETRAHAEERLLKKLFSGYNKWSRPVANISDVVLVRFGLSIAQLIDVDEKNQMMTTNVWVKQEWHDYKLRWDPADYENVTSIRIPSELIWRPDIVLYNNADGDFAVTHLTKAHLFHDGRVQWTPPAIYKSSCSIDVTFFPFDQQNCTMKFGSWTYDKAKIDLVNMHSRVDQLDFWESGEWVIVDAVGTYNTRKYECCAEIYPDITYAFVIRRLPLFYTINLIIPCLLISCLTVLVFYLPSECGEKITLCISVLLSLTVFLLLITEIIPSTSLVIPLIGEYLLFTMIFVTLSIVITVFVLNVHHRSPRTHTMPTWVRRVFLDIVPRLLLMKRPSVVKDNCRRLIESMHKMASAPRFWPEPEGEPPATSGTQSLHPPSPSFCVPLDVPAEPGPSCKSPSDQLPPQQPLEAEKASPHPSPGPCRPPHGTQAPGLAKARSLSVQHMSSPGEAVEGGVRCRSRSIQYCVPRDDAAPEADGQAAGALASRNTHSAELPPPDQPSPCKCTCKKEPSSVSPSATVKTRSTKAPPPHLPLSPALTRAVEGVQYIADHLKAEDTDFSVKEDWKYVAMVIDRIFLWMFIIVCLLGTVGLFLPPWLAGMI

The term Ki denotes the dissociation constant of the complex between target and ligand, obtained from inhibition or displacement. As to `C[N+]1(Cc2cccc(/N=N\c3cccc(C[N+]4(C)CCCCC4)c3)c2)CCCCC1`, in data set [1], the Ki is 2600 nM.

In general, inhibition refers to the drop in the measured response relative to a control, in per cent. For the molecule `C[N+]1(Cc2ccc(/N=N/c3ccc(C[N+]4(C)CCCC4)cc3)cc2)CCCC1.[I-].[I-]`, the Ki is 200 nM in [2], greater than 10 µM in data set [6] and 930 nM in data set [7]. For the same molecule, the solubility thermodynamic at 24 h in data set [3] came to 14.8 mM. Also, the Activity entry in the data set on RAW264.7 was “Non-Toxic”. Also, the Papp at 4 h in [4] is less than 1 ×10⁻⁶ cm/s. Moreover, in data set [5] (filed as antagonist), the inhibition was 45%.

Consider `C[N+]1(Cc2cccc(/N=N/c3ccccc3)c2)CCCCC1.[I-]`, for which the Ki was greater than 10000 nM in data set [2], greater than 10 µM in data set [6] and greater than 10000 nM in data set [7]. For the same molecule, the solubility thermodynamic at 24 h in [3] stood at 5.5 mM. Also, the Activity result in the data set on RAW264.7 was “Non-Toxic”. The inhibition in data set [8] (filed as antagonist) came out at 48%; in data set [5] it was 39%; in the data set with TE-671, 45%. Further, the Papp at 4 h in data set [4] amounted to 2 ×10⁻⁶ cm/s.

`C[N+]1(Cc2cccc(/N=N/c3cccc(C[N+]4(C)CCCCCC4)c3)c2)CCCCCC1.[I-].[I-]`: the Ki in data set [2] is 220 nM; in data set [9] it was 300 nM; in data set [6] it was greater than 10 µM; in data set [7], 1900 nM. The solubility thermodynamic at 24 h in [3] is 5.9 mM. Also, the Activity result in the data set with RAW264.7 is reported as “Non-Toxic”. In addition, in data set [4], the Papp at 4 h was less than 1 ×10⁻⁶ cm/s. The inhibition in data set [5] came out at 29%.

`C[N+]1(Cc2cccc(/N=N\c3cccc(C[N+]4(C)CCCCCC4)c3)c2)CCCCCC1`: the inhibition constant Ki in data set [1] was determined as 2600 nM.

With `C[N+]1(Cc2ccc(/N=N/c3ccc(C[N+]4(C)CCCCC4)cc3)cc2)CCCCC1.[I-].[I-]`, the Ki is 1100 nM in data set [2], 1.5 µM in [6] and greater than 10000 nM in data set [7]. Also, the solubility thermodynamic at 24 h in [3] is 34.9 mM. In the data set on RAW264.7, the Activity result is listed as “Non-Toxic”. Also, in data set [8], the inhibition was determined as 16%. The Papp at 4 h in [4] is less than 1 ×10⁻⁶ cm/s.

`Clc1ccc([C@H]2C[C@@H]3CC[C@H]2N3)cn1` [(-)-EPIBATIDINE] returned an inhibition constant Ki in [7] of 120 nM.

With `C[N+]1(Cc2cccc(/N=N/c3cccc(C[N+]4(C)CCCCC4)c3)c2)CCCCC1.[I-].[I-]`, the inhibition entry in the data set on Oocyte [10] and with Oocyte [15] was “inactive” throughout. The Ki in data set [2] is 35 nM; in data set [9] it was 460 nM; in data set [6] it was greater than 10 µM; in [7] it was 910 nM. Besides, the solubility thermodynamic at 24 h in data set [3] is 38.4 mM. Also, the inhibition result in the data set on Oocyte [11], in the data set on Oocyte [12] and in the data set on Oocyte [14] was “Active” in each case. Moreover, the Ratio Ki in the data set listed under Homo sapiens [13] is 26; in the data set listed under Homo sapiens [16], greater than 290. For the same molecule, the Activity entry in the data set on RAW264.7 is “Non-Toxic”. Moreover, in data set [4], the Papp at 4 h was less than 1 ×10⁻⁶ cm/s. In [5], the inhibition was 7%.

`C[N+]1(Cc2cccc(/N=N/c3cccc(C[N+]4(C)CCCC4)c3)c2)CCCC1.[I-].[I-]`: the Ki is 42 nM in [2], greater than 10 µM in data set [6] and 2500 nM in data set [7]. Also, the solubility thermodynamic at 24 h in data set [3] stood at 36.3 mM. For the same molecule, the Ratio Ki was 60 in the data set listed under Homo sapiens [13] and greater than 240 in the data set filed under Homo sapiens [16]. Besides, the Activity entry in the data set on RAW264.7 is “Non-Toxic”. In data set [4], the Papp at 4 h was less than 1 ×10⁻⁶ cm/s. In data set [5], this molecule gave an inhibition of 31%.

As for `C[N+]1(Cc2cccc(/N=N/c3cccc(C[N+]4(C)CC=CCC4)c3)c2)CC=CCC1.[I-].[I-]` (centres undefined), the Ki in [2] was 100 nM; in data set [9] it was 840 nM; in data set [6], greater than 10 µM; in data set [7] it was 730 nM. In the data set on Oocyte [17], the Ratio stood at 0.11. Further, in data set [3], the solubility thermodynamic at 24 h came to 16.3 mM. Moreover, the Activity entry in the data set on RAW264.7 is recorded as “Non-Toxic”. Also, the Papp at 4 h in data set [4] is less than 1 ×10⁻⁶ cm/s. The inhibition in [5] was 32%.

For `C[N+]1(Cc2cccc(/N=N\c3cccc(C[N+]4(C)CC=CCC4)c3)c2)CC=CCC1` (centres undefined), the Ratio in the data set with Oocyte [18] stood at 0.35. In addition, the inhibition constant Ki in [1] turned out to be 880 nM.
